Measured values from patent US9777012B2, “Substituted furo[2,3-d]pyrimidines as multi-targeted receptor tyrosine kinase inhibitors and microtubule targeting antitumor agents” (Duquesne University of the Holy Spirit, priority 2014, dated 2017).
Several values for one entry are separate records, joined by “and”; a condition that tells them apart may be missing. Identical values can stand only once.

Experiments:
EGFR = target: T1, EGFR (Homo sapiens, UniProt P00533); assay: Phosphotyrosine ELISA cytoblot, EGFR (A431 cells); type: cell-based; conditions: EGF stimulation, read-out: EGFR kinase inhibition
T1 construct: tumor cell lines naturally expressing high levels of EGFR (A431); endogenous in cells; host or cells: A431
T1 sequence (P00533 25-1210): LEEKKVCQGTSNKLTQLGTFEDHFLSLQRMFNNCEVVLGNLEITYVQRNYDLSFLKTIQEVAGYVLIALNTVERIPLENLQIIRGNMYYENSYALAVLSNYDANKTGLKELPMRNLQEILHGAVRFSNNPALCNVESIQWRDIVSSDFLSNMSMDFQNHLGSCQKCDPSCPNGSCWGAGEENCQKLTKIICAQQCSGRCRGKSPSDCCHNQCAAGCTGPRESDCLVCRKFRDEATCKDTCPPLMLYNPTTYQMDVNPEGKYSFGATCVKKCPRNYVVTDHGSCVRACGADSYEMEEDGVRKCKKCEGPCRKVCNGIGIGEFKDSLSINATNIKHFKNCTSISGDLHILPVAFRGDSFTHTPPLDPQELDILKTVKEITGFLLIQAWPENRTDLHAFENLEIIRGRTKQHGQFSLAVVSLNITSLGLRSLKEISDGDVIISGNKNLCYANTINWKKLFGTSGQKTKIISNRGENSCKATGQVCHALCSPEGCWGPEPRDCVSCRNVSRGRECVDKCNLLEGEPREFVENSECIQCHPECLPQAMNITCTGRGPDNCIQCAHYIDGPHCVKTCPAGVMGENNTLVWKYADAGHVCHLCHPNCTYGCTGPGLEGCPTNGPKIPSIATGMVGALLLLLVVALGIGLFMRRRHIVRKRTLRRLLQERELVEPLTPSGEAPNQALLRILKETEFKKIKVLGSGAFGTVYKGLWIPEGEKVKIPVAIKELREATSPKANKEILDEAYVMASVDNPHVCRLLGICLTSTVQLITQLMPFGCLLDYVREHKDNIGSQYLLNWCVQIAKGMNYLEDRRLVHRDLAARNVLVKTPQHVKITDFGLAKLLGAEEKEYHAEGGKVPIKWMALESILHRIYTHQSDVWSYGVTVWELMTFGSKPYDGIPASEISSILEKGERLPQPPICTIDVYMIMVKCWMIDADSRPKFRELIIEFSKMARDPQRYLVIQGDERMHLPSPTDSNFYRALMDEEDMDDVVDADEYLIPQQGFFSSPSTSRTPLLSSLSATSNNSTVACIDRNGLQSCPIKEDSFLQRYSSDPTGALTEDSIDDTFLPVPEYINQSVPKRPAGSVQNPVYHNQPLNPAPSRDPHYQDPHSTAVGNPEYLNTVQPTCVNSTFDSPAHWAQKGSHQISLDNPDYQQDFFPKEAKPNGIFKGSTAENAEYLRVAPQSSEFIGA
Protocol: (§1) Phosphotyrosine ELISA. Cells used were tumor cell lines naturally expressing high levels of EGFR (A431), VEGFR-2 (U251), and PDGFR-β (SH-SY5Y). […] The reaction was stopped and cells were permeabilized by quickly removing the media from the cells and adding ice-cold Tris-buffered saline (TBS) containing 0.05% Triton X-100, protease inhibitor cocktail and tyrosine phosphatase inhibitor cocktail. The TBS solution was then removed and cells fixed to the plate for 30 min at 60° C. and further incubation in 70% ethanol for an additional 30 min. Cells were further exposed to block (TBS with 1% BSA) for 1 h, washed, and then a horseradish peroxidase (HRP)-conjugated phosphotyrosine (PY) antibody was added overnight.

VEGFR-2 = target: T2, VEGFR-2 (Homo sapiens, UniProt P35968); assay: Phosphotyrosine ELISA cytoblot, VEGFR-2 (U251 cells); type: cell-based; conditions: for IC50: U251 cells, phosphotyrosine ELISA, VEGF stimulation, read-out: VEGFR-2 kinase inhibition; for fold better than sunitinib, VEGFR-2: VEGFR-2 expressing cells
T2 construct: tumor cell lines naturally expressing high levels of EGFR (A431), VEGFR-2 (U251); endogenous in cells; host or cells: U251
T2 sequence (P35968 20-1356): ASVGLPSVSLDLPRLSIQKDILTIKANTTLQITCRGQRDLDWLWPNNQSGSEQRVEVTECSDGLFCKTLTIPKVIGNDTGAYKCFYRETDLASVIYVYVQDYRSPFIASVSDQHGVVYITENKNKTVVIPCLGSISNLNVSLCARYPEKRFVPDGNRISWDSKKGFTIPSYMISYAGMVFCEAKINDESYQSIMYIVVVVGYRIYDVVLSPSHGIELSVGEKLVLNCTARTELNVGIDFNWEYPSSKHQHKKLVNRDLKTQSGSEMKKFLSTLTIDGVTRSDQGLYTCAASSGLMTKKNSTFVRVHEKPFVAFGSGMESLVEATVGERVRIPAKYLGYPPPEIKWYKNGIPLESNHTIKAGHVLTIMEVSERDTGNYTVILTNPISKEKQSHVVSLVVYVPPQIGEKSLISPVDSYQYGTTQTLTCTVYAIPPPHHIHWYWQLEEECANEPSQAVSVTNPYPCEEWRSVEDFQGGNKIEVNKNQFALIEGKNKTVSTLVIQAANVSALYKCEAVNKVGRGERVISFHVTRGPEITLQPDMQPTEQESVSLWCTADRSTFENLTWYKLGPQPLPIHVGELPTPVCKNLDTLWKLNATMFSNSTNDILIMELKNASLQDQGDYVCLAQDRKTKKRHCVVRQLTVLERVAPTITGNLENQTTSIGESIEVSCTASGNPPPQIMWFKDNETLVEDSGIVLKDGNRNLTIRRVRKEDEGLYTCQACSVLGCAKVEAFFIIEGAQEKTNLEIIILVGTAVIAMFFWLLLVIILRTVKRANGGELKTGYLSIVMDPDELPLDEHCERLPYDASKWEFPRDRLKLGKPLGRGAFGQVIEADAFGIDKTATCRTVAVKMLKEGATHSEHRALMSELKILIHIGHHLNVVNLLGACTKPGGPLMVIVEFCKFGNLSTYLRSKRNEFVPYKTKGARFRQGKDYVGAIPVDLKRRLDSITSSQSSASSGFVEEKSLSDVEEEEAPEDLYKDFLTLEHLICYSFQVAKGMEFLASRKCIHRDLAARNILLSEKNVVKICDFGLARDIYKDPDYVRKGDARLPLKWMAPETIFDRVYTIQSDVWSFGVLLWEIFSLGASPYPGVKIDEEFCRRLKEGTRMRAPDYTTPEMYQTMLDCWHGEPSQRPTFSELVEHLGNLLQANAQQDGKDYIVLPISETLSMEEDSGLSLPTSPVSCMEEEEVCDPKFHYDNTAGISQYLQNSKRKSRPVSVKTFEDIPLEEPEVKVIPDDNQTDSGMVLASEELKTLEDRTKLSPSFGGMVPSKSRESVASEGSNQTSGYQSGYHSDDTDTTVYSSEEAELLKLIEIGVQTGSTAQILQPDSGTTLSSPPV
Protocol: as §1

PDGFR-β = target: T3, PDGFR-β (Homo sapiens, UniProt P09619); assay: Phosphotyrosine ELISA cytoblot, PDGFR-β (SH-SY5Y cells); type: cell-based; conditions: for IC50: SH-SY5Y cells, phosphotyrosine ELISA, PDGF-BB stimulation, read-out: PDGFR-β kinase inhibition; for fold better than sunitinib, PDGFR-β: PDGFR-β expressing cells
T3 construct: naturally expressing high levels of EGFR (A431), VEGFR-2 (U251), and PDGFR-β (SH-SY5Y); endogenous in cells; host or cells: SH-SY5Y
T3 sequence (P09619 33-1106): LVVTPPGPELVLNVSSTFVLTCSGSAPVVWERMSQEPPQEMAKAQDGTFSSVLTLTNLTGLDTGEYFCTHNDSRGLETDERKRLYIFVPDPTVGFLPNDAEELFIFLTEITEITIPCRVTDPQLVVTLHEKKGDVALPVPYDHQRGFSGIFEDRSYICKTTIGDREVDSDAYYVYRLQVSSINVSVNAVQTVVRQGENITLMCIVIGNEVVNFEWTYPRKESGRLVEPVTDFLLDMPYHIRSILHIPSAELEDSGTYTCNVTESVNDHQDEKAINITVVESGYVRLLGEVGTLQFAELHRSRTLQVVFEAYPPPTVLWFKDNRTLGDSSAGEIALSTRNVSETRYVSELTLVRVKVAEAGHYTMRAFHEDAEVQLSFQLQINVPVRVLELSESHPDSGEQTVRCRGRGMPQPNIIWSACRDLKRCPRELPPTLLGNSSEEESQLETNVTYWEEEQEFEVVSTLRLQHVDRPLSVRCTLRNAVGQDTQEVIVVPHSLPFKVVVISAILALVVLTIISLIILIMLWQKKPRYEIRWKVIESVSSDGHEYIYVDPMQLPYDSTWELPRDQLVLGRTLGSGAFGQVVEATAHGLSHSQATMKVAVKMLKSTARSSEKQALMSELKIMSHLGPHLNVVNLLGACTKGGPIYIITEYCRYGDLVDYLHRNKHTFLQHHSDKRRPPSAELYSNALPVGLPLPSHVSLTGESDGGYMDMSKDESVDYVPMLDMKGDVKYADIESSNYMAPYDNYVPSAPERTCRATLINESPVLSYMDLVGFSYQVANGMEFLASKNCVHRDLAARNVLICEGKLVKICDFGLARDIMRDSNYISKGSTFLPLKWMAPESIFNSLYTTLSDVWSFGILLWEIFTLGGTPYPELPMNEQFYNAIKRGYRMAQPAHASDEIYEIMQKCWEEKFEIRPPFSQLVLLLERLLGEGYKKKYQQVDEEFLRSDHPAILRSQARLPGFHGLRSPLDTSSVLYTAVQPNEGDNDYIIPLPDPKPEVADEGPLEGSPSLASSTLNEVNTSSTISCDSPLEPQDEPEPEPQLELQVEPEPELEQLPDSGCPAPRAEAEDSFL
Protocol: as §1

A431 cancer cells = assay: A431 cytotoxicity (cell proliferation); type: cell-based; conditions: Homo sapiens, A-431; A431 cancer cells overexpressing EGFR
M6/6 cells = assay: SRB antiproliferative assay, M6/6 (SK-OV-3 expressing Pgp); type: cell-based; conditions: for IC50: Homo sapiens, SK-OV-3, SRB assay, 48 h, Pgp expressing, read-out: IC50 ± SD in M6/6 cells; for Rr value: relative resistance, M6/6 (Pgp) vs parental SKOV3
[1] = test system: cellular microtubules in A-10 cells; assay: Cellular microtubule depolymerization, indirect immunofluorescence; type: cell-based; conditions: for effect on cellular microtubules: result in words
Protocol: Evaluation of microtubule inhibition was performed using previously described methods.^22 Indirect immunofluorescence was used to evaluate the effects of the compounds on cellular microtubules as described previously.^38 Briefly, A-10 cells were treated for 18 h with vehicle (DMSO) or a compound, and microtubule effects were evaluated microscopically using β-tubulin antibody. The EC50 was calculated from 3 independent experiments and expressed as the mean±SD.

WTβ3 cells = assay: SRB antiproliferative assay, WTβ3 (HeLa overexpressing βIII tubulin); type: cell-based; conditions: relative resistance, WTβ3 vs parental HeLa
tubulin = assay: Inhibition of tubulin assembly (purified tubulin); type: biochemical; conditions: read-out: Inhibition tubulin assembly IC50(μM) ± SD

`CCCOc1ccc(N(C)c2nc(C)nc3oc(C)cc23)cc1` [Compound 12, N-2,6-trimethyl-N-(4-propoxyphenyl)furo[2,3-d]pyrimidin-4-amine] was tested, and the IC50 (EGFR) was over 500 nM, the IC50 (VEGFR-2) was 121 ± 18.6 nM and the IC50 (PDGFR-β) was 132 ± 14.4 nM. The IC50 (A431 cancer cells) was 92.9 ± 10.1 nM, the IC50 (M6/6 cells) was 30.8 ± 1.7 nM and the Rr value (M6/6 cells) was 1.3.
`COc1cc(N(C)c2nc(C)nc3oc(C)cc23)cc(OC)c1OC` [Compound 4, N,2,6-trimethyl-N-(3,4,5-trimethoxyphenyl)furo[2,3-d]pyrimidin-4-amine] was tested, and the IC50 (EGFR) was over 500 nM and the IC50 (VEGFR-2) was over 300 nM.
With `COc1ccc2c(c1)CCCN2c1nc(C)nc2oc(C)cc12` [Compound 10, 4-(6-methoxy-3,4-dihydroquinolin-1(2H)-yl)-2,6-dimethylfuro[2,3-d]pyrimidine] the “effect on cellular microtubules” value [1] was “dose-dependent loss of cellular microtubules”.
For `Cc1nc(N(C)c2ccc3c(c2)CCO3)c2cc(C)oc2n1` [Compound 6, N-(2,3-dihydro-1-benzofuran-5-yl)-N,2,6-trimethylfuro[2,3-d]pyrimidin-4-amine], the “fold better than sunitinib, VEGFR-2” value (VEGFR-2) was 3 fold, the “fold better than sunitinib, PDGFR-β” value (PDGFR-β) was “about 4 fold” and the “effect on cellular microtubules” value [1] was “dose-dependent loss of cellular microtubules”. It also gave an IC50 (M6/6 cells) of 155 ± 17.2 nM and a Rr value (M6/6 cells) of 1.3.
For `Cc1nc(N(C)c2ccc3occc3c2)c2cc(C)oc2n1` [Compound 7, N-1-benzofuran-5-yl-N,2,6-trimethylfuro[2,3-d]pyrimidin-4-amine], the “fold better than sunitinib, VEGFR-2” value (VEGFR-2) was 3 fold, the “fold better than sunitinib, PDGFR-β” value (PDGFR-β) was “about 4 fold” and the “effect on cellular microtubules” value [1] was “dose-dependent loss of cellular microtubules”. The IC50 (M6/6 cells) was 509 ± 4.8 nM and the Rr value (M6/6 cells) was 1.2.
With `COc1ccc2c(c1)CCN2c1nc(C)nc2oc(C)cc12` [Compound 8, 4-(5-methoxyindolin-1-yl)-2,6-dimethylfuro[2,3-d]pyrimidine] the “effect on cellular microtubules” value [1] was “no effect on cellular microtubules”.
Work on `COc1ccc(N(C)c2nc(C)nc3oc(C)cc23)cc1` [Compound 1] yielded an EC50 ([1]; Rattus norvegicus, A10, 18 h, read-out: EC50 for MT depolymerization in A · 10 cells) of 103 nM, a Rr value (WTβ3 cells) of 0.8 and a Rr value (M6/6 cells) of 1.7. It also gave an IC50 (tubulin) of 2.4 ± 0.01 µM.
Molecule `CCOc1ccc(N(C)c2nc(C)nc3oc(C)cc23)cc1` [Compound 11, N-(4-ethoxyphenyl)-N,2,6-trimethylfuro[2,3-d]pyrimidin-4-amine] has an IC50 (EGFR) of 102 ± 20.1 nM, an IC50 (VEGFR-2) of 38.5 ± 4.7 nM and an IC50 (PDGFR-β) of 84 ± 10 nM.
`COc1ccc(/C=C\c2cc(OC)c(OC)c(OC)c2)cc1O` [CA-4, combretastatin A-4, reference compound] showed a Rr value (WTβ3 cells) of 1.0 and a Rr value (M6/6 cells) of 0.4.
With `COc1ccc(N(C)c2nc(C)nc3oc(C)cc23)cc1OC` [Compound 3, N-(3,4-dimethoxyphenyl)-N,2,6-trimethylfuro[2,3-d]pyrimidin-4-amine] the “effect on cellular microtubules” value [1] was “dose-dependent loss of cellular microtubules”.
For `CC(=O)O[C@H]1C(=O)[C@@]2(C)[C@H]([C@H](OC(=O)c3ccccc3)[C@]3(O)C[C@H](OC(=O)[C@H](O)[C@@H](NC(=O)c4ccccc4)c4ccccc4)C(C)=C1C3(C)C)[C@]1(OC(C)=O)CO[C@@H]1C[C@@H]2O` [Paclitaxel, reference compound], the Rr value (WTβ3 cells) was 17.3 and the Rr value (M6/6 cells) was “over 250 and 265.2”.
With `COc1ccc2c(ccn2-c2nc(C)nc3oc(C)cc23)c1` [Compound 9, 4-(5-methoxy-1H-indol-1-yl)-2,6-dimethylfuro[2,3-d]pyrimidine] the IC50 (EGFR) was over 500 nM.
